{"source": "paper PMC7352342", "about": "“Inhibition of Patched Drug Efflux Increases Vemurafenib Effectiveness against Resistant Braf^V600E Melanoma” (Cancers, 2020)", "key": {"human Ptch1": {"molecular_target": "T1, human Ptch1 (Homo sapiens, UniProt Q13635)", "T1 construct": "made in house; host or cells: yeast (membrane preparation)", "T1 sequence (Q13635 1-1447)": "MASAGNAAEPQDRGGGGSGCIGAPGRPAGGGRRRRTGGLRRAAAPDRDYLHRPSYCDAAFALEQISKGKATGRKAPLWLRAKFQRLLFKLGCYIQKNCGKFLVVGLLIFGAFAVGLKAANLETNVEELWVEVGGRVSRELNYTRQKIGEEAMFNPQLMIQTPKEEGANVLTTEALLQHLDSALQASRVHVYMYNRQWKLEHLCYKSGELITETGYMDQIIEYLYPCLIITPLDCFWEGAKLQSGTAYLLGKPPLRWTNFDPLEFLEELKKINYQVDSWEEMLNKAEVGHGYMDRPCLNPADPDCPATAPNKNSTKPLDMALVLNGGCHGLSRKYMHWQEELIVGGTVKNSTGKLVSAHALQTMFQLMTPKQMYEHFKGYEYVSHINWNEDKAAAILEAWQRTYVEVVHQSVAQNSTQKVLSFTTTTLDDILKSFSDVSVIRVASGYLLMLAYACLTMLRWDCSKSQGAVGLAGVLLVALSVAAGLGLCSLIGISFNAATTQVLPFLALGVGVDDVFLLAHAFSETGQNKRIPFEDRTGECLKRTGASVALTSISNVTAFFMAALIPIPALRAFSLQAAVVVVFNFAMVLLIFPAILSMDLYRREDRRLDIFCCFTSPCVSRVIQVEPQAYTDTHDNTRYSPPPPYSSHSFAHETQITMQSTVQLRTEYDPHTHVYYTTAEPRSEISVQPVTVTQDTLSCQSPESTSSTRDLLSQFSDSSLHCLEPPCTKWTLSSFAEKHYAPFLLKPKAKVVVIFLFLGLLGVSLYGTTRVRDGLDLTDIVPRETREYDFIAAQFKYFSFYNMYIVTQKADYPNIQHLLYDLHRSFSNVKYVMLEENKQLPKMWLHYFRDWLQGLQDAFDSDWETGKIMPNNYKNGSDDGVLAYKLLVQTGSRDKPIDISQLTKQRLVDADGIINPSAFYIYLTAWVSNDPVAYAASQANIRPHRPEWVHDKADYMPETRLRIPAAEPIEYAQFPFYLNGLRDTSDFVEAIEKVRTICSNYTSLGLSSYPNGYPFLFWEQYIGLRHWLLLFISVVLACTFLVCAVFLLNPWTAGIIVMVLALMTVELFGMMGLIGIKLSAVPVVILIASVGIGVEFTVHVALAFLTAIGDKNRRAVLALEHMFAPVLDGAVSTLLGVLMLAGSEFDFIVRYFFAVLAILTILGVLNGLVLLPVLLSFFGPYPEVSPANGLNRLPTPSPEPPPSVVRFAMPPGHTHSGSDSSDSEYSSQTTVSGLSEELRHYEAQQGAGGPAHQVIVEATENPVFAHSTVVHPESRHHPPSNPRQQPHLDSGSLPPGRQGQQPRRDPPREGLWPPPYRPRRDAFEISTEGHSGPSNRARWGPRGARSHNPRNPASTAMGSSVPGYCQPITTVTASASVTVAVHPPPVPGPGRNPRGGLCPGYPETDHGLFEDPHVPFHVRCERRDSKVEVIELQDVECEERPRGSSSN", "experiment": "Microscale thermophoresis on membranes from yeast expressing human Ptch1", "assay_type": "binding", "conditions": "membranes from yeast expressing hPtch1; MST; mean of 3 experiments", "procedure": "Microscale thermophoresis (MST) is a biophysical technique that measures the strength of the interaction between two molecules by detecting a variation in the fluorescence signal of a fluorescently labeled target as a result of an IR-laser induced temperature change. The range of the variation in the fluorescence signal correlates with the binding of a ligand to the fluorescent target.\nMembranes from yeast expressing human Ptch1 or human Smoothened were incubated at 30 µg/mL with 20 nM of the fluorescent dye NT-647 2nd gen (NanoTemper Technologies, München, Germany) to label the His-tag present at the c-terminus of both proteins. […] The fluorescence within the capillary is excited and detected through the same objective. […] The MST response of fluorescent proteins within the temperature gradient is detected. After activation of the IR laser, a decrease in fluorescence is observed which corresponds to temperature-related intensity change (TRIC) triggered by the fast temperature change and thermophoretic movement of the fluorescent proteins out of the heated sample volume. […] For analysis, the change in MST signal is expressed as the change in the normalized fluorescence (Fnorm), which is defined as F1/F0. […] The sPAH Kd was determined for 3 independent experiments."}, "MeWo cells": {"test_system": "MeWo cells", "experiment": "Cytotoxicity assay (neutral red), MeWo cells", "assay_type": "cell-based, human", "procedure": "Human melanoma cell lines A375 and MeWo were purchased from ATCC, and cultured in DMEM medium supplemented with 10% fetal bovine serum and penicillin/streptomycin (Invitrogen) at 37 °C in a 5% CO2/95% water-saturated air atmosphere. Melanoma cell lines SKMEL 28, SKMEL V3, WM9S, and WM9R were provided by Robert Ballotti (C3M, Nice, France). MeWo-dxrR cells were obtained by adding increasing concentrations of doxorubicin, up to 0.2 µM, in the culture medium over 6 months. These cells were grown in medium supplemented with 0.2 µM dxr. WM9R cells were obtained by adding increasing concentrations of vemurafenib, up to 5 µM, in the culture medium over 6 months. These cells were grown in medium supplemented with 5 µM vemurafenib. HEK cells were grown in 75 mm tissue culture dishes (Falcon, Franklin Lakes, NJ, USA) in Dulbecco’s modified Eagle’s medium (Gibco, Life Technologies, Saint Aubin, France) supplemented with 10% fetal calf serum (Hyclone, Thermo Fisher Scientific GMBH, Ulm, Germany) and 1% penicillin/streptomycin (Gibco, Life Technologies, Saint Aubin, France) in a humidified incubator at 37 °C (5% CO2).\nCells were seeded in 96-well plates in triplicate and grown in medium to achieve 70 to 80% confluence. Medium was then removed and replaced with 100 µL/well of complete medium containing PAH or DMSO as a control. After 2 h, 100 µL of complete medium containing serial dilutions of dxr, cisplatin or vemurafenib were added. Plates were incubated at 37 °C and 5% CO2. After 24 or 48 h, cells were incubated for 3 h at 37 °C with 100 µL/well neutral red (NR) solution (50 µg/mL in medium) following the manufacturer’s protocol. Measurements were made in microplate readers (Multiskan Go Microplate Spectrophotometer from Thermo Scientific)."}}, "note": "Several values for one entry are separate records, joined by “and”; a condition that tells them apart may be missing. Identical values can stand only once. Like-named read-outs stand apart in the source and are kept apart here."}
{"smiles": "COc1cc(C)c(CC/C(C)=C/Cc2cc(O)ccc2O)c(C)c1C", "note": "[sPAH, Panicein A hydroquinone]", "values": [{"measurement": "Kd", "setting": "human Ptch1", "value": "~7 µM and 7.2 µM"}, {"measurement": "IC50", "setting": "MeWo cells; MeWo cells, 2 µM Dxr present, listed as Synthetic PAH, read-out: IC50 of PAH at 2 µM Dxr", "value": "8.1 ± 1.3", "unit": "µM"}, {"measurement": "IC50", "setting": "MeWo cells; MeWo, 24 or 48 h, read-out: sPAH-IC50 (cytotoxicity of sPAH alone)", "value": "~40", "unit": "µM"}, {"measurement": "IC50 of cisplatin in the presence of sPAH", "setting": "MeWo cells; MeWo, sPAH 20 µM vs DMSO (Figure S2)", "value": "significantly decreased"}]}
